Measurements from patent US6780876B2, “Composition for keeping away vermin” (Novartis Animal Health US, Inc., priority 1998, dated 2004).

Tests used:
[1] = test system: Boophilus Microplus Biarra (larvae); experiment: Arena test in vitro against Boophilus microplus Biarra (larvae); assay type: in vivo; conditions: even up to a dilution of 10 μg/cm^2
Experimental: (§1) This method is carried out in titre plates having 6 wells with a cross-section of 5 cm each, using a computer-supported video system. Each well of the titre plate is lined with a circular filter paper or another suitable carrier material. The substance of formula I to be tested is dissolved in methanol, acetonitrile or another suitable solvent, with ultrasound treatment and heating being employed for poorly-soluble substances. In an amount of 1 to 100 μg/cm^2, the dissolved test substance is placed in the centre of the filter paper on a quadrant or circular area of ca. 2.4 cm^2 radius. 4 of the 6 wells are filled with different test substances or with the same test substance in different dilutions (e.g. 1, 3.2, 5, 10 and 20 μg/cm^2). The 5th well is treated with DEET (N,N-diethyl-m-toluamide) as standard substance. The 6th well is filled with the pure solvent and serves as a control. 60 to 100 larvae or 25 to 50 nymphs or 10 to 25 adults of the parasite to be tested, e.g. ticks, are added to each filter paper, and the system is covered with a pane of glass and positioned under a video camera. At intervals of 5 seconds, the video camera takes individual pictures of all 6 wells. […] 6 or with the standard in the 5th well. […] In this way, neutral and deterring substances are determined. At the same time, the duration of activity of the test substance is determined and compared with that of the standard. By plotting all the images for each individual well over one another, different areas of density are obtained. This represents the frequency at which the parasites visit certain places. This frequency is evaluated statistically and thus quantitatively by the Willcoxon method in a comparison with the control and with the standard.
Arena Test in vitro Against Boophilus Microplus Biarra (larvae)
The test is carried out as described above, with ca. 60 to 100 larvae being added per well. 10 mg of dissolved test substance is applied to an area of 2.4 cm^2 radius.

[2] = test system: Amblyomma Hebraeum or Variegatum (nymphs); experiment: Arena test in vitro against Amblyomma hebraeum or variegatum (nymphs); assay type: in vivo; conditions: even up to a dilution of 3.2 μg/cm^2
Experimental: (§2) This method is carried out in titre plates having 6 wells with a cross-section of 5 cm each, using a computer-supported video system. Each well of the titre plate is lined with a circular filter paper or another suitable carrier material. The substance of formula I to be tested is dissolved in methanol, acetonitrile or another suitable solvent, with ultrasound treatment and heating being employed for poorly-soluble substances. In an amount of 1 to 100 μg/cm^2, the dissolved test substance is placed in the centre of the filter paper on a quadrant or circular area of ca. 2.4 cm^2 radius. 4 of the 6 wells are filled with different test substances or with the same test substance in different dilutions (e.g. 1, 3.2, 5, 10 and 20 μg/cm^2). The 5th well is treated with DEET (N,N-diethyl-m-toluamide) as standard substance. The 6th well is filled with the pure solvent and serves as a control. 60 to 100 larvae or 25 to 50 nymphs or 10 to 25 adults of the parasite to be tested, e.g. ticks, are added to each filter paper, and the system is covered with a pane of glass and positioned under a video camera. At intervals of 5 seconds, the video camera takes individual pictures of all 6 wells. For a qualitative evaluation, these images are observed in a time-lapse as a continuous film, optically following the movements of the parasites on the filter paper and comparing them with the movements in the control well no. 6 or with the standard in the 5th well. A qualitative observation is thus made as to whether the test parasites move evenly over the whole surface of the filter paper and ignore the test substance, or whether and over what period they avoid the treated zone, and what influence the dilution of the test substance has on the behaviour of the test parasites. In this way, neutral and deterring substances are determined. At the same time, the duration of activity of the test substance is determined and compared with that of the standard. By plotting all the images for each individual well over one another, different areas of density are obtained. This represents the frequency at which the parasites visit certain places. This frequency is evaluated statistically and thus quantitatively by the Willcoxon method in a comparison with the control and with the standard. Compounds of Table 1, for example nos.
Arena Test in vitro Against Amblyomma Hebraeum or Variegatum (nymphs)
The test is carried out as described above, with ca. 25 to 50 nymphs being added per well. 10 mg of dissolved test substance is applied to an area of 2.4 cm^2 radius. […] 1.26 to 1.36, 1.40, 1.45, 1.47, 1.95, 1.96, 1.97, 1.137, and 1.139, even up to a dilution of 3.2 μg/cm^2.

[3] = test system: ticks; experiment: Arena test method for testing vermin-deterring substances; assay type: in vivo; conditions: 1 to 100 μg/cm^2 on filter paper; video evaluation against solvent control and DEET standard
Experimental: Arena Test Method for Testing Vermin-deterring Substances
as §2

[4] = test system: Rhipicephalus Sanguineus (nymphs); experiment: Arena test in vitro against Rhipicephalus sanguineus (nymphs); assay type: in vivo; conditions: even up to a dilution of 10 μg/cm^2
Experimental: as §1
Arena Test in vitro Against Rhipicephalus Sanguineus (nymphs)
A test is carried out analogously to example B using ca. 40 to 50 nymphs.

[5] = test system: certain plant damaging insects; conditions: cited from earlier work

Structure (SMILES) | long-term deterring activity [1] | long-term deterrent activity [2] | vermin-deterring activity in the arena test [3] | long-term deterring activity [4] | activity as a deterrent [5]
CC(C)c1ccc(C(O)C2CCCCN2)cc1 (stereo not drawn) [Compound 1.95, 2-[(1-[4-isopropyl-phenyl])(1-hydroxy)methyl]piperidine] | Particularly marked long-term activity | Particularly marked long-term activity | excellent activity | – | –
CCCCCCCCCCC(O)C1CCCCN1C(C)=O (stereo not drawn) [Compound 1.140, N-acetyl-2-[(1-hydroxy)(1-undecyl)]piperidine] | Particularly marked long-term activity | – | – | – | –
CCCCCCCCCCC(O)C1CCCCN1 (stereo not drawn) [Compound 1.27, 2-[n-(1-hydroxyundecyl)]piperidine] | – | – | – | Particularly marked long-term activity | –
CC(C)c1ccc(C(O)C2CCCCN2C)cc1 (stereo not drawn) [Compound 1.96, N-methyl-2-[(1-[4-isopropylphenyl])(1-hydroxy)methyl]-piperidine] | Particularly marked long-term activity | Particularly marked long-term activity | excellent activity | Particularly marked long-term activity | –
CCCCCCCCCCCCCCCCC(O)C1CCCCN1 (stereo not drawn) [Compound 1.34, 2-[n-(1-hydroxyheptadecyl)]piperidine] | – | – | – | Particularly marked long-term activity | –
OC(c1ccccc1)C1CCCCN1 (stereo not drawn) [Compound 1.40, 2-[(1-phenyl)(1-hydroxy)methyl]piperidine] | Particularly marked long-term activity | Particularly marked long-term activity | – | Particularly marked long-term activity | –
OC(COCc1ccccc1)C1CCCCN1 (stereo not drawn) [Compound 1.137] | Particularly marked long-term activity | Particularly marked long-term activity | excellent activity | Particularly marked long-term activity | –
Cc1ccc(C(O)C2CCCCN2)cc1 (stereo not drawn) [Compound 1.89, 2-[(1-[4-methylphenyl])(1-hydroxy)methyl]piperidine] | – | – | excellent activity | – | –
CC1(C)CCCC(C(O)c2ccc(Cl)cc2)N1 (stereo not drawn) [Compound 1.139, 6,6-dimethyl-2-[(1-[4-chlorphenyl])(1-hydroxy)methyl]piperidine] | Particularly marked long-term activity | Particularly marked long-term activity | excellent activity | Particularly marked long-term activity | –
OC[C@H]1NC[C@H](O)[C@@H](O)[C@@H]1O [deoxynojirimicin] | – | – | – | – | slight activity
CCCCCCCCCCC(O)C1CCCCN1C(=O)OCC (stereo not drawn) [Compound 1.141, N -ethoxycarbonyl--2-[(1-hydroxy)(1-undecycl)]piperidine] | Particularly marked long-term activity | – | – | – | –
CCCCCCCCCCCCCCCCCCC(O)C1CCCCN1 (stereo not drawn) [Compound 1.36, 2-[n-(1-hydroxynonadecyl)]piperidine] | – | – | – | Particularly marked long-term activity | –
Cc1ccc(C(O)C2CCCCN2C)cc1 (stereo not drawn) [Compound 1.87, N-methyl-2-[(1-[4-methylphenyl])-(1-hydroxy)methyl]piperidine] | – | – | excellent activity | – | –
COc1ccc(C(O)C2CCCCN2)cc1 (stereo not drawn) [Compound 1.97, 2-[(1-[4-methoxyphenyl])(1-hydroxy)methyl]piperidine] | Particularly marked long-term activity | Particularly marked long-term activity | excellent activity | – | –
CC1(C)CCCC(C(O)c2ccc(Cl)cc2)N1 (stereo not drawn) [Compound 1.101, 6,6-dimethyl-2-[(1-[4-chlorphenyl])(1-hydroxy)methyl]piperidine] | – | – | excellent activity | – | –
CCCCCCCCCCCCC(O)C1CCCCN1 (stereo not drawn) [Compound 1.29, 2-[n-(1-hydroxytridecyl)]piperidine] | – | – | – | Particularly marked long-term activity | –
OC(c1ccccc1)C1CCCCN1 (stereo not drawn) [Compound 1.44, 2-[(1-phenyl)(1-hydroxy)methyl]piperidine] | – | – | excellent activity | – | –
CCCCCCCCCCCCCCC(O)C1CCCCN1 (stereo not drawn) [Compound 1.32, 2-[n-(1-hydroxypentade-cyl)]piperidine] | – | – | – | Particularly marked long-term activity | –
OC(c1ccccc1)(c1ccc2c(c1)CCO2)C1CCCCN1 (stereo not drawn) [Compound 1.59] | – | – | excellent activity | Particularly marked long-term activity | –
CN1CCCCC1C(O)c1ccccc1 (stereo not drawn) [Compound 1.45, N-me-thyl-2-[(1-phenyl)(1-hydroxy)methyl]piperidine] | Particularly marked long-term activity | Particularly marked long-term activity | excellent activity | Particularly marked long-term activity | –
